# Measurements reported in patent US20240082242A1, “COMBINATION THERAPIES” (IMBRIA PHARMACEUTICALS, INC., priority 2021, published 2024).
# Legend:
# [1] = system: cardiac glucose metabolism; experiment: PET imaging of 18F-FDG uptake after CV-8972 injection; assay type: in vivo, rat
# Text: (§1) The effects of CV-8972, a partial fatty acid oxidation inhibitor, on glucose and fatty acid metabolism were investigated using non-invasive positron emission tomography (PET) imaging. The PET radiotracer ^18F fluorodeoxyglucose (FDG), a radiolabeled glucose analog, was used to evaluate cardiac glucose metabolism, and the PET radiotracer ^18F fluoro-6-thia-heptadecanoic acid (FTHA), a radiolabeled long-chain fatty acid (LCFA) analog, was used to evaluate fatty acid beta oxidation. Both radiotracers are “entrapped” in cells in a way that is proportional to either glucose or fatty acid metabolism. For example, high ^18F-FDG or ^18F-FTHA signal indicates high glucose or fatty acid metabolism, respectively, while, conversely, diminished uptake indicates lower metabolism.
# (§2) PET imaging with ^18F-FDG and ^18F-FTHA was performed in healthy rats. PET images were acquired dynamically for 120 minutes after tracer injection to capture dynamic changes in cardiac glucose and fatty acid metabolism. For each tracer, animals were imaged twice, once after injection of vehicle (phosphate buffered saline, PBS) or CV-8972 (80 mg/3 mL/kg), subcutaneously injected to the back of animals 15 min prior to PET imaging.
# (§3) FIG. 1 is a schematic of the positron emission tomography (PET) imaging study design used to monitor the uptake of ^18F-fluorodeoxyglucose (^18F-FDG) and ^18F-14(R,S)-(18)F-fluoro-6-thia-heptadecanoic acid (^18F-FTHA) into heart tissue of rats in response to treatment with CV-8972. To monitor uptake of ^18F-FDG, rats were fasted for 16 hours prior to day 1. On day 1, rats were given phosphate-buffered saline (PBS) at time 0, and 15 minutes later ^18F-FDG was administered and traced in vivo by PET for two hours following administration. Rats were again fasted for 16 hours prior to day 3. On day 3, rats were given CV-8972 at time 0, and 15 minutes later ^18F-FDG was administered and traced in vivo by PET for two hours following administration. Immediately following the second PET scan, the animals were sacrificed, and the levels of gamma radioactivity in the blood, heart, and skeletal muscle were measured. To monitor uptake of ^18F-FTHA, rats were allowed to eat prior to day 1. On day 1, rats were given PBS at time 0, and 15 minutes later ^18F-FTHA was administered and traced in vivo by PET for two hours following administration. Rats were allowed to eat prior to day 3. On day 3, rats were given CV-8972 at time 0, and 15 minutes later ^18F-FTHA was administered and traced in vivo by PET for two hours following administration. Immediately following the second PET scan, the animals were sacrificed, and the levels of gamma radioactivity in the blood, heart, and skeletal muscle were measured.
# (§4) Dynamic positron emission tomography/computed tomography (PET/CT) imaging was obtained with a Mediso nanoScan 122S PET/CT system. Cardiac glucose and fatty acid metabolisms were visualized by tracking ^18F-FDG (NCM-USA LLC, NY, USA) and ^18F-FTHA (Department of Radiology, New York University School of Medicine, NY, USA), respectively. Before the ^18F-FDG scan, rats were fasted overnight for at least 16 hours to minimize the physiological uptake of the radiotracer to cardiomyocyte. Either vehicle (phosphate buffered saline) or CV-8972 (80 mg/3 mL/kg) was subcutaneously injected to the back of animals 15 min prior to PET imaging. Animals were then placed on the scanner, and high-resolution CT images was obtained. Following, dynamic PET was started at the same time as the injection of ^18F-FDG (37 MBq, 1 mCi/0.5 mL/body) via tail vein and recorded for 120 min. Each animal underwent 2 scan sessions, one after vehicle injection and another after CV-8972 injection, with 2 or more days interval (average 2.9 days, 2-6 days). The order of the 2 imaging sessions was randomized among rats. For ^18F-FTHA (37 MBq, 1 mCi/0.5 mL/body), animals received 2 scan sessions under same conditions as those for ^18F-FDG except for fed condition. […]
# [2] = system: fatty acid beta oxidation; experiment: PET imaging of 18F-FTHA uptake after CV-8972 injection; assay type: in vivo, rat
# Text: as §1, §2, §3, §4
# [3] = system: radioactivity in the heart, skeletal muscle, and blood; experiment: Ex vivo quantification of radiotracer uptake by gamma counting; assay type: in vivo, rat
# Protocol: Shortly after the final PET/CT scan, blood was taken from abdominal vein under anesthesia with isoflurane (3-5%), and then animals were euthanized by exsanguination. After thorough perfusion with PBS, the heart and skeletal muscle (right brachium) were harvested. Radioactivity in the heart, muscle, and blood was determined with a Wizard2 2480 automatic gamma counter (Perkin Elmer, Waltham, MA) and % ID/g was calculated for each organ.
# The radioactivity in the heart, skeletal muscle, and blood was also determined with a gamma counter shortly after PET/CT imaging for further ex vivo validation.
# [4] = system: TAC-induced heart failure in mice; experiment: Transverse aortic constriction (TAC) model of heart failure; assay type: in vivo, mouse
# Protocol: Studies were conducted to evaluate and compare the efficacy of the reference compound TMZ with CV-8814 and CV-1018972 on ventricular remodeling, preservation of heart function and prevention of fibrosis in a transverse aortic constriction (TAC) model of heart failure in mice.
# FIG. 30 is a schematic of the transverse aortic constriction (TAC) protocol used to test the ability of various compounds to protect the heart against heart failure. The aortic arc was exposed via midline incision in the chest cavity of anesthetized mice. A 27-gauge needle was tied against the transverse aorta and then promptly removed to create a ligature constriction. In vivo cardiac function was assessed by transthoracic echocardiography performed at 24-hour, 3-week, and 6-week time-points after TAC. Ventricular remodeling was determined by evaluation of heart weights (HW) and heart weight to body weight ratios (HW/BW). At study termination, hearts were excised, fixed, sectioned at 6 μm and stained with Masson's trichome. The area of fibrosis in myocardial tissue was measured by computerized planimetry on five random fields per heart. A total of 65 to 75 fields were analyzed per treatment group and differences were analyzed by Student's t-test.
# Three separate studies were performed to evaluate the efficacy of single agents and combinations with metabolic enhancers in the TAC model of heart failure. In the first study, mice were treated with either trimetazidine alone or trimetazidine+nicotinamide+succinate. In the second study, mice were treated with CV-8814 alone or trimetazidine+nicotinic acid+succinate. In the third study, mice were treated with […], CV-8814, or CV-8972. Overall, the activities of trimetazidine, CV-8814, and CV-8972 on most study endpoints were in good agreement across the three studies. In the third study, the three compounds were analyzed at equivalent mg/kg/day doses on a formula weight basis: 6 mg/kg/d for trimetazidine, 7.5 mg/kg/day for CV-8814; and 10 mg/kg/day for CV-8972. Therefore, the results from the third study are summarized here.
# [5] = mouse, iv, 10 mg/kg
# [6] = static analysis at 30 minutes, CV-8972 vs saline
# [7] = two-compartment model, CV-8972 80 mg/kg s.c. vs PBS
# [8] = CV-8972 80 mg/kg s.c. vs PBS, fed rats
# [9] = gamma counter shortly after PET/CT, CV-8972 80 mg/kg s.c., mean±SD
# [10] = gamma counting, CV-8972 vs control
compound,measurement,setting,value
"COc1ccc(CN2CCN(CCOC(=O)c3cccnc3)CC2)c(OC)c1OC [CV-8972, 2-[4-[(2,3,4-trimethoxyphenyl)methyl]piperazin-1-yl]ethyl pyridine-3-carboxylate]",average SUV of 18F-FDG in the heart at 120 min,"[1]; CV-8972 80 mg/3 mL/kg s.c. 15 min before PET, fasted healthy rats, mean±SD",12.56±7.82
same,"18F-FDG signal in the blood, single dynamic frames",[1]; CV-8972 80 mg/kg s.c. vs PBS,did not clearly affect
same,"18F-FDG signal in the skeletal muscle and blood, last 30 minutes (90-120 minutes)",[1]; CV-8972 80 mg/kg s.c. vs PBS,slightly lower signal
same,"18F-FDG uptake in skeletal muscle, single dynamic frames",[1]; CV-8972 80 mg/kg s.c. vs PBS,slightly lower
same,"18F-FDG uptake in the myocardium, last 30 minutes of PET acquisition (90-120 minutes)",[1]; CV-8972 80 mg/kg s.c. vs PBS,significantly higher
same,fold increase of heart 18F-FDG SUV at 120 min over control group,"[1]; CV-8972 80 mg/kg s.c., vs PBS control 0.89±0.62",approximately 14 fold
same,"change in 18F-FDG SUV in skeletal muscle, static analysis",[1]; [6],minimal change
same,"fold increase in 18F-FDG SUV in rat heart tissue, static analysis",[1]; [6],12 fold
same,18F-FDG myocardial uptake by kinetic modeling,[1]; [7],significantly higher myocardial uptake
same,18F-FDG skeletal muscle uptake by kinetic modeling,[1]; [7],lower
same,"18F-FTHA blood signal, last 30 minutes (90-120 minutes)",[2]; CV-8972 80 mg/kg s.c. vs PBS,unaffected
same,"18F-FTHA myocardial signal, last 30 minutes (90-120 minutes)",[2]; CV-8972 80 mg/kg s.c. vs PBS,slightly higher without reaching statistical significance
same,"18F-FTHA signal in the blood, single dynamic frames",[2]; [8],did not clearly affect
same,"18F-FTHA uptake in the heart, single dynamic frames",[2]; [8],no statistically significant changes
same,"18F-FTHA uptake in the skeletal muscle, single dynamic frames",[2]; [8],slightly higher uptake
same,"18F-FTHA signal in the skeletal muscle, last 30 minutes (90-120 minutes)","[2]; CV-8972 80 mg/kg s.c. vs PBS, reached statistical significance",slightly higher signal
same,initial fold increase of 18F-FTHA PET signal in heart after CV-8972 administration,"[2]; from 18F-FTHA circulating in the blood compartment, followed by washout over 120 min",~2 fold
same,18F-FTHA uptake into the myocardium and skeletal muscle by kinetic modeling,"[2]; three-compartment model, CV-8972 80 mg/kg s.c. vs PBS",significantly higher uptake
same,"mean radioactivity of the heart, 18F-FDG",[3]; [9],4.25±1.03 % ID/g
same,"mean radioactivity of the heart, 18F-FTHA",[3]; [9],1.98±0.53 % ID/g
same,radioactivity of skeletal muscle and blood vs control,"[3]; gamma counting, 18F-FDG and 18F-FTHA",did not show clear differences
same,"fold of heart radioactivity over control, 18F-FDG",[3]; [10],5.6 fold
same,"fold of heart radioactivity over control, 18F-FTHA",[3]; [10],3.6 fold
same,left ventricular fractional shortening (FS) at Week 3,"[4]; CV-8972 10 mg/kg/day, control 37%±3%",47%±3%
same,left ventricular fractional shortening (FS) at Week 6,"[4]; CV-8972 10, CV-8814 7.5 mg/kg/day, control 34%±3%",46%±3%
same,fibrosis of myocardial tissue after six weeks,"[4]; Masson's trichome, percentage of fibrotic heart tissue, control 10.7±1",6.6±0.6%
same,isovolumic relaxation time (IVRT) at Week 6,[4]; control 35±1,31 ± 2 ms
same,isovolumic relaxation time (IVRT) at the three-week assessment,[4]; control 36±1,32 ± 1 ms
same,left ventricular ejection fraction (EF) throughout the six-week study,"[4]; third study, minipump",preserved
same,heart weight to body weight ratio,"[4]; third study, CV-8972 10 mg/kg/day, control 9.1±0.5",7.4 ± 0.3 mg/g
same,left ventricular mass,"[4]; third study, CV-8972 10 mg/kg/day, control 195±12",156 ± 10 mg
same,heart weight,"[4]; third study, subcutaneous osmotic minipump, CV-8972 10 mg/kg/day, control 270±14",225 ± 11 mg
same,conversion of CV-8972 in vivo,[5],rapidly converted to CV-8814
